The record followed here is patent EP4512427A1, “ANTIBODY-DRUG CONJUGATES BASED ON MOLECULAR GLUE DEGRADERS AND USES THEREOF” (Mablink Bioscience, priority 2023, dated 2025).

Holding throughout (assay): In vitro cytotoxicity assay (MTT)
Common to all, as to format: cell-based, human

One series deals with MDA-MB-231. The note with it: 6 days incubation. The protocol: (§1) In vitro cytotoxicity of compounds of the disclosure was assessed on several cancerous human cell lines. Cells were plated in 96-well plates at an appropriate density depending on the cell line (between 1000 and 10 000 cells/well in 100µL of appropriate culture media) and incubated at 37°C for 24 hours. Serial dilutions of the tested compound previously dissolved in culture media (50µL) were added, and incubation was carried at 37°C out for 6 days. MTT (5mg/mL in PBS, 20µL, Sigma-Aldrich) was added into the wells, and incubation was continued for 1 to 4 hours at 37°C. Culture media was then carefully removed, and well content was homogeneously dissolved with acidified isopropanol. Absorbance values were measured on a microplate reader using a wavelength of 570 nm (with a reference wavelength of 690 nm). The IC50 concentration values compared to untreated control cells were determined using inhibition dose response curve fitting (GraphPad Prism 9). Exatecan mesylate (cat#HY-13631A) and CR8 (CAS# 294646-77-8; cat#HY-18340) were purchased from MedChemExpress (China).

The subject of the next series is SKBR-3. The following applies: 6 days incubation. The protocol: as §1
The next series concerns NCI-N87. The note with it: 6 days incubation. As for the experimental part:
as §1

In a further series the test system is JIMT-1. The note with it: 6 days incubation. As for the experimental part:
as §1

The test system of another series is MDA-MB-453. The note with it: 6 days incubation. The protocol: as §1
Another series deals with BT-474. The following applies: BT-474, 6 days incubation, MTT. As for the experimental part:
as §1

[1] abbreviates: Homo sapiens, MDA-MB-231, 144 h.
Setting [2] is: Homo sapiens, MDA-MB-453, 144 h.

Regarding `N#Cc1cnn2c(NCc3ccc(-c4ccccn4)cc3)nc(N[C@H]3CC[C@H](N)CC3)nc12` [Compound 2478], the IC50 (commonly the concentration that inhibits the measured activity by half) in the series on MDA-MB-231 is 1.64 nM; in the series on SKBR-3, 17.6 nM; in the series with NCI-N87 it was 6.88 nM; with JIMT-1 it was 1.18 nM; in the series with MDA-MB-453 it was 1.34 nM; with BT-474, 1.72 nM.
Turning to `N[C@H]1CC[C@H](Nc2nc(Nc3ccc(CN4CCOCC4)cc3)n3ncc(Br)c3n2)CC1` [Compound 2533], the 50% inhibitory concentration (IC50) with MDA-MB-231 (setting [1]) is above 100 nM; with SKBR-3 (Homo sapiens, SK-BR-3, 144 h), above 100 nM; in the series with NCI-N87 (Homo sapiens, NCI-N87, 144 h), above 100 nM; with JIMT-1 (Homo sapiens, 144 h), above 100 nM; in the series on MDA-MB-453 (setting [2]), above 100 nM; in the series on BT-474 (Homo sapiens, BT-474, 144 h) it was above 100 nM.
As to `O[C@H]1CN[C@H](CNc2nc(NCc3ccc(-c4ccccn4)cc3)n3ncc(Br)c3n2)C1` [Compound 2538], the concentration for half-maximal inhibition (IC50) in the series with MDA-MB-231 (setting [1]) was 8.75 nM; in the series with SKBR-3 (Homo sapiens, SK-BR-3, 144 h), 39.1 nM; in the series with NCI-N87 (Homo sapiens, NCI-N87, 144 h), 21.6 nM; with JIMT-1 (Homo sapiens, 144 h), 5.13 nM; in the series on MDA-MB-453 (setting [2]) it was 8.12 nM; in the series with BT-474 (Homo sapiens, BT-474, 144 h) it was 6.54 nM.
On to `Brc1cnn2c(Nc3ccc(CN4CCOCC4)cc3)nc(NC3CCNCC3)nc12` [Compound 2554], for which the half-maximal inhibitory concentration (IC50) in the series with MDA-MB-231, in the series on SKBR-3, in the series on NCI-N87, in the series on JIMT-1, with MDA-MB-453 and with BT-474 was above 100 nM each time.
For `NCCNc1nc(NCc2ccc(-c3ccccn3)cc2)n2ncc(Br)c2n1` [Compound 2638], the concentration for half-maximal inhibition (IC50) with MDA-MB-231 (setting [1]) was determined as 0.3 nM; in the series with SKBR-3 (Homo sapiens, SK-BR-3, 144 h), 0.82 nM; in the series on NCI-N87 (Homo sapiens, NCI-N87, 144 h) it was 0.42 nM; in the series on MDA-MB-453 (setting [2]), 0.88 nM; in the series on BT-474 (Homo sapiens, BT-474, 144 h), 0.78 nM.
As to `Brc1cnn2c(NCc3ccc(-c4ccccn4)cc3)nc(N[C@@H]3CCNC3)nc12` [Compound 2656], the IC50 in the series on MDA-MB-231 (setting [1]) was found to be 0.65 nM; in the series on SKBR-3 (Homo sapiens, SK-BR-3, 144 h), 0.17 nM; in the series with NCI-N87 (Homo sapiens, NCI-N87, 144 h), 1.42 nM; with MDA-MB-453 (setting [2]), 1.13 nM; in the series with BT-474 (Homo sapiens, BT-474, 144 h), 2.52 nM.
In the case of `Brc1cnn2c(NCc3ccc(-c4ccccn4)cc3)nc(N[C@H]3CCNC3)nc12` [Compound 2657], the IC50 in the series with MDA-MB-231 came to 0.56 nM; in the series on SKBR-3, 0.13 nM; with NCI-N87, 0.43 nM; in the series on MDA-MB-453, 0.77 nM; in the series with BT-474, 1.71 nM.
Regarding `NCCCNc1nc(NCc2ccc(-c3ccccn3)cc2)n2ncc(Br)c2n1` [Compound 2658], the IC50 in the series with MDA-MB-231 (setting [1]) came to 1.98 nM; in the series on SKBR-3 (Homo sapiens, SK-BR-3, 144 h) it was 0.77 nM; with NCI-N87 (Homo sapiens, NCI-N87, 144 h), 6.43 nM; in the series with MDA-MB-453 (setting [2]), 7.84 nM; in the series with BT-474 (Homo sapiens, BT-474, 144 h) it was 4.57 nM.
`Brc1cnn2c(NCc3ccc(-c4ccccn4)cc3)nc(N[C@@H]3CCCNC3)nc12` [Compound 2659, 8-bromo-N2-[(3R)-piperidin-3-yl]-N4-{[4-(pyridin-2-yl)phenyl]methyl}pyrazolo[1 ,5-a][1 ,3,5]triazine-2,4-diamine]: the IC50 was found to be 0.26 nM in the series on MDA-MB-231 (setting [1]); 0.72 nM in the series on SKBR-3; 0.34 nM with NCI-N87 (Homo sapiens, NCI-N87, 144 h); 0.4 nM in the series with MDA-MB-453 (setting [2]); 0.72 nM with BT-474 (Homo sapiens, BT-474, 144 h).
With `Brc1cnn2c(NCc3ccc(-c4ccccn4)cc3)nc(N[C@@H]3CCCNC3)nc12` [Compound 2660, 8-bromo-N2-[(3R)-piperidin-3-yl]-N4-{[4-(pyridin-2-yl)phenyl]methyl}pyrazolo[1,5-a][1 ,3,5]triazine-2,4-diamine], the half-maximal inhibitory concentration (IC50) stood at 0.43 nM in the series with MDA-MB-231; 0.11 nM with SKBR-3; 0.49 nM with NCI-N87; 0.68 nM with MDA-MB-453; 1.25 nM in the series with BT-474.
Consider `N[C@H]1CC[C@H](Nc2nc(NCc3ccc(-c4ccccn4)cc3)n3ncc(Br)c3n2)C1` [Compound 2669], for which the concentration for half-maximal inhibition (IC50) turned out to be 0.44 nM in the series on MDA-MB-231 (setting [1]); 0.67 nM with SKBR-3 (Homo sapiens, SK-BR-3, 144 h); 0.39 nM in the series on NCI-N87 (Homo sapiens, NCI-N87, 144 h); 0.59 nM in the series with MDA-MB-453 (setting [2]); 1.75 nM in the series on BT-474 (Homo sapiens, BT-474, 144 h).
In the same order, the values of `N[C@H]1CCCC[C@H]1Nc1nc(NCc2ccc(-c3ccccn3)cc2)n2ncc(Br)c2n1` [Compound 2672] are 0.46 nM, 0.24 nM, 0.55 nM, 0.76 nM and 2.12 nM.
